Source: patent US9958434B2, “Fluorescent probe sensing tyrosine kinase and use thereof” (POSTECH ACADEMY-INDUSTRY FOUNDATION, priority 2013, dated 2018)

Assays:
[1] = test system: six kinase enzymes: ABL, BRAF, PDGFRa, RSK2, Src, TYK2; experiment: Effect of kinase inhibitor on binding of compound 1 to kinase enzymes (fluorescence intensity)
Protocol: In this experiment, a buffer (100 mM HEPES buffer, pH 7.4) was used as the solvent, and a kinase commercially available from Carna Biosciences was used as the kinase enzyme. Here, each kinase enzyme was stored at −80° C. together with a solvent (50 mM Tris-HCl, 150 mM NaCl, 0.1% CHAPS, 1 mM DTT, and 10% Glycerol, pH 7.5) kindly provided by the manufacturer. […] A 96-well fluorescence assay plate (commercially available from SPL Life Science) was used as a plate used upon measurement of fluorescence, and a VCITOR 3 multilabel counter (commercially available from Perkin Elmer-Wellesley) was used as a measuring machine. A 355 nm-thick filter was used to produce excitation wavelengths of the measuring machine, and a 535 nm-thick filter was used to produce emission wavelengths of the measuring machine. […]
More particularly, an effect of the inhibitor on a total of the six kinase enzymes was determined, and the six kinase enzymes are as follows: (A) ABL, (B) BRAF, (C) PDGFRa, (D) RSK2, (E) Src, and (F) TYK2. […]
In this case, compound 1 (100 μM), ATP (1 mM), Mg (1 mM), and a kinase enzyme (0.2 μg/ml) were stirred for 24 hours (at 37° C.), and an inhibitor (100 μM) was then treated. […] Here, a left bar of each of A to F represents a fluorescence intensity before treatment of the inhibitor, and a right bar of each of A to F represents a fluorescence intensity after treatment of the inhibitor.

CT-26 cancer cells = experiment: Emission wavelengths of fluorescence in cancer cells using an optical fiber; assay type: cell-based, mouse; conditions: CT-26 cells treated with compound 1 as in Example 12
Protocol: More particularly, CT-26 cancer cells were treated with compound 1 in the same manner as performed in Example 12, and emission wavelengths of fluorescence were then determined using an optical fiber. The optical fiber was connected to a spectrofluorometer (FL1039, HORIBA), and ranges of excitation wavelengths and emission wavelengths are substantially the same as in Example 12. Then, the emission wavelengths of fluorescence were determined.

[2] = test system: B16F10, CT26, SNU-475, A431, SKBR3, HeLa, U87MG cancer cells; experiment: Fluorescence turn-on in cancer cells, single-photon and two-photon fluorescence microscopy; assay type: cell-based, mouse, human; conditions: 50 μM, one hour; single-photon ex 405 nm, two-photon ex 880 nm, em 500 to 550 nm
Protocol: More particularly, a total of seven kinds of cancer cells, for example, (a) B16F10 mouse skin cancer cells, (b) CT26 mouse colon cancer cells, (c) SNU-475 human liver cancer cells, (d) A431 human epidermoid carcinoma cells, (e) SKBR3 human breast cancer cells, (f) HeLa human uterine cancer cells, and (g) U87MG human brain tumor cells, were treated with compound 1, and fluorescence images of the cancer cells were observed under a single-photon (confocal) fluorescence microscope (FV1000 model, Olympus) and a two-photon fluorescence microscope (Chameleon Ultra, Coherent, home-built version). Each of the cancer cells were incubated in a minimum essential medium with Earle's balanced salts (MEM/EBSS), a Dulbecco's modified Eagle medium (DMEM), a Roswell Park Memorial Institute (RPMI) medium, a fetal bovine serum (FBS), a penicillin-streptomycin (PS) medium, phosphate buffered saline (PBS), and a trypsin-EDTA culture broth, all of which were commercially available from Hyclone. In this case, the incubation was performed at 37° C. […] When the preparation was completed, a fluorescence image was obtained using a fluorescence microscope.
In FIG. 11, the top panel represents a bright field image, the middle panel represents a single-photon fluorescence microscope image of the cells, and the bottom panel represents a two-photon fluorescence microscope image of the cells.

[3] = test system: mouse cutaneous melanoma cells (B16F10); experiment: Cytotoxicity, cell counting kit-8 (CCK-8); assay type: cell-based; conditions: B16F10, 0 to 200 μM, incubated for an hour
Protocol: The present inventors confirmed the cytotoxicity of compound 1 in mouse cutaneous melanoma cells (B16F10) using a cell counting kit-8 (CCK-8) method (Dojindo laboratories, Kumamoto, Japan).
More particularly, the B16F10 cells were incubated for 24 hours (at 37° C.) at a density of 5000 cells/well in a 96-well plate under a 5% CO2 atmosphere. The cells were treated with an increasing concentration of compound 1 (10 μM, 30 μM, 50 μM, 100 μM, and 200 μM) in a DMSO solvent, and then incubated for an hour. Thereafter, the cells were treated with 10 μL of a CCK-8 solution, and then incubated for 2 hours.

PDGFRa = biological target: T1, PDGFRa (Homo sapiens, UniProt P16234); experiment: Protein binding selectivity by change in fluorescence (fluorescence turn-on on binding)
T1 construct: purchased Carna Biosciences
Protocol: More particularly, to determine whether compound 1 selectively binds to a kinase enzyme, various proteins (including a kinase enzyme) were used to check a change in fluorescence. In this experiment, a buffer (100 mM HEPES buffer, pH 7.4) was used as the solvent, and a kinase commercially available from Carna Biosciences was used as the kinase enzyme. Here, each kinase enzyme was stored at −80° C. together with a solvent (50 mM Tris-HCl, 150 mM NaCl, 0.1% CHAPS, 1 mM DTT, and 10% Glycerol, pH 7.5) kindly provided by the manufacturer. […] A 96-well fluorescence assay plate (commercially available from SPL Life Science) was used as a plate used upon measurement of fluorescence, and a VCITOR 3 multilabel counter (commercially available from Perkin Elmer-Wellesley) was used as a measuring machine. A 355 nm-thick filter was used to produce excitation wavelengths of the measuring machine, and a 535 nm-thick filter was used to produce emission wavelengths of the measuring machine. Stirring was performed at 37° C. for 24 hours at a rotary speed of 170 rpm using an NB-205Q model (commercially available from N-BIOTEK). Compound 1 was dissolved in a DMSO solution (1 mM, 10 mM, 50 mM, 100 mM, and 200 mM) to be used, and DMSO in every tube was adjusted to be substantially the same content (less than 1%) under the finally used solvent conditions. Mg^2+ and ATP were used at a content of 1 mM.
In the graph shown in FIG. 2, the horizontal axis represents kinds of proteins, and the vertical axis represents fluorescence intensities of the proteins. Each experimental value was basically an average value of three experiments conducted through the same course for preparing for experiments, a concentration of compound 1 used was 100 μM, and an amount of each protein was 0.2 μg/mL. The kinds of proteins indicated on the horizontal axis are as follows.
More particularly, Model WUV-L10 commercially available from WiseUV was used as a UV excitation device, and the solvent and experiment conditions used were substantially the same as in Example 3. Here, a fluorescence emission observed in the UV excitation device (UV excitation at 350 nm to 430 nm) was determined by taking an image.
More particularly, compound 1 (100 μM) and the kinase enzyme, Src or PDGFRa, were used at contents of 0.2 μg and 1 μg, respectively, and the solvent and experiment conditions used were substantially the same as in Example 3.
More particularly, the solvent and experiment conditions used were substantially the same as in Example 3. In the graph shown in FIG. 7, A represents a fluorescence intensity when compound 1 (100 μM) is used alone, B represents a fluorescence intensity when Mg (1 mM) is added to compound 1, C represents a fluorescence intensity when ATP (1 mM) is added to compound 1, and D represents a fluorescence intensity when compound 1 is treated with Mg (1 mM) and ATP (1 mM) at the same time.
More particularly, a concentration of the kinase enzyme was set to 0.2 μg/mL, fluorescence intensity according to the concentration of compound 1 was measured in the presence of Mg (1 mM) and ATP (1 mM), and the solvent conditions and other conditions were substantially the same as in Example 3.

T1 sequence (P16234 24-1089): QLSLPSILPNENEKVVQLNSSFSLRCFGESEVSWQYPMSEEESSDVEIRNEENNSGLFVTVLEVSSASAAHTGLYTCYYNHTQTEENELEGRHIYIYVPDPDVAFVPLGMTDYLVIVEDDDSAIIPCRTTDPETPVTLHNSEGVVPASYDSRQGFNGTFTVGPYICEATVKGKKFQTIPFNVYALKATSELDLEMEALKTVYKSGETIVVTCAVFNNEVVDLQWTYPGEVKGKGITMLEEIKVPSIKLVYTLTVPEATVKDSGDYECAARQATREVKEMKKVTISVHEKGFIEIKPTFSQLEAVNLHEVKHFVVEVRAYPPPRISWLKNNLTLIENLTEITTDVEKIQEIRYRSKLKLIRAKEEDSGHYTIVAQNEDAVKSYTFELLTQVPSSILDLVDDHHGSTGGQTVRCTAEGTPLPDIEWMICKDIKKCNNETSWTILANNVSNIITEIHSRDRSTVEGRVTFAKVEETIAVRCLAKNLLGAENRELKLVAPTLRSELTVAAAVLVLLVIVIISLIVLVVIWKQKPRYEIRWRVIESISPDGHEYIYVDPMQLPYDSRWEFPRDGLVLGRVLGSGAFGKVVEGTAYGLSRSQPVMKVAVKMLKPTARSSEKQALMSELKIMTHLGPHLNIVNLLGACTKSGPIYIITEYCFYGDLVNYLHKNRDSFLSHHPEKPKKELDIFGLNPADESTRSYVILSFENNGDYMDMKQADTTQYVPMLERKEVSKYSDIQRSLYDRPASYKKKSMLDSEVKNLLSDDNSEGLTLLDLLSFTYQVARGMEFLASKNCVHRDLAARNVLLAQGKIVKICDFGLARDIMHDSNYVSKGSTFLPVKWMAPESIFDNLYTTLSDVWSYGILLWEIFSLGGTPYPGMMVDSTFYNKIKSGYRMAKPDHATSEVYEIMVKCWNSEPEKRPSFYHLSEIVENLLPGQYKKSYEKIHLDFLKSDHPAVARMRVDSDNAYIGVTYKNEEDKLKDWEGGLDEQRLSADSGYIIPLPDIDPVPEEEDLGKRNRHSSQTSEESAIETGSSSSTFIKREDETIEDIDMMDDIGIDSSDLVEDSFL

fluorescence intensity after later treatment of inhibitor ([1]; 24 hours 37° C. with kinase, Mg, ATP, then inhibitor 100 μM for another 24 hours): decreased | fluorescence under UV excitation (image) (PDGFRa; PDGFRa with ATP and Mg, 37° C. 24 hours, UV 350 nm to 430 nm, compared with compound 1 alone): strong fluorescence | fluorescence intensity (PDGFRa; compound 1 100 μM, protein 0.2 μg/mL, with Mg and ATP (1 mM), 37° C. 24 hours): highest fluorescence intensity | increase in fluorescence intensity (PDGFRa; compound 1 at approximately 50 μM, kinase 0.2 μg/mL, Mg 1 mM, ATP 1 mM): approximately 50%
Structure (SMILES): CN(C)c1ccc2cc(C=O)c(O)cc2c1 [compound 1, 6-(dimethylamino)-3-hydroxyl-2-naphthaldehyde]
fluorescence intensity with inhibitor included ([1]; compound 1 100 μM, kinase 0.2 μg/ml, Mg 1 mM, ATP 1 mM, Gleevec 100 μM together): did not selectively bind to the kinase enzymes to cause a sufficient increase in fluorescence intensity | emission wavelength of fluorescence in cells (CT-26 cancer cells): around 550 nm | fluorescence image in cancer cells [2]: bright fluorescence image | cell viability [3]: more than 90% | fluorescence intensity, effect of cofactors (PDGFRa; compound 1 100 μM, case D: Mg (1 mM) and ATP (1 mM) together): highest increase in fluorescence intensity | fluorescence signal intensity according to concentration of kinase enzyme (PDGFRa; compound 1 100 μM, enzyme 0.2 μg and 1 μg): stronger fluorescence signal intensity at higher concentrations
